In patent US10316017B2, “COT modulators and methods of use thereof” (Gilead Sciences, Inc., priority 2015, dated 2019):
Where two headings read alike, the source gives them in different places.

Tests used:
[1] = biological target: T1, human Cot catalytic domain (30-397 amino acids) (Homo sapiens, UniProt P41279); assay: High Throughput Cot Biochemical Assay (KinEASE TR-FRET); conditions: Cot biochemical HTRF (KinEASE TR-FRET) assay; read-out: IC50 HTRF
T1 construct: Purified recombinant human Cot catalytic domain (30-397 amino acids) was purchased from Cama Biosciences; purchased Cama Biosciences (so in the source)
T1 sequence (P41279 30-397): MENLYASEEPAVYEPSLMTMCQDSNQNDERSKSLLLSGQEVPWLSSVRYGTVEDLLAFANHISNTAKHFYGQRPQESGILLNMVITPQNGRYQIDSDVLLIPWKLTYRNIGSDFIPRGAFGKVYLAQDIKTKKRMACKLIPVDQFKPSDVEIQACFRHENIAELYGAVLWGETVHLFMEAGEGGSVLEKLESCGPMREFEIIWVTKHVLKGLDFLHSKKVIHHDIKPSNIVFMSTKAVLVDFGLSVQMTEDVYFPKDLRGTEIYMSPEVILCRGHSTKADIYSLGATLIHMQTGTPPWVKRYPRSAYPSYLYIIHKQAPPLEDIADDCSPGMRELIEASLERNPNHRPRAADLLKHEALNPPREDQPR
Outline: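 First, purified human Cot (aa 30-397) at 5 nM phosphorylates an XL665-labeled STK3 peptide (1 μM) at 400 μM ATP, pH 7.0, 0.1% DMSO. Then a europium-conjugated phospho-specific antibody binds the product, giving the TR-FRET signal.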

[2] = tested on: TNFα production in LPS-stimulated human monocytes; assay: Cot Monocyte TNFα Cell Based Assay; conditions: TNFα in LPS-stimulated human monocytes, read-out: EC50 TNF
Outline: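 5,000 cells/well; cmpd 1 h, 37 °C, 0.5% DMSO final; LPS 50 pg/ml, 4 h, 37 °C; media TNFα by HTRF sandwich (cryptate/XL665), RT overnight; % control vs unstimulated/stimulated wells.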

| Structure (SMILES) | IC50 [1] | EC50 ([2]; Homo sapiens, Monocyte) | EC50 [2] |
| --- | --- | --- | --- |
| N#Cc1cnc2c(Cl)cc(N[C@@H](c3ccc(F)cc3)c3c[nH]nn3)cc2c1NC1CCCC(O)C1 (stereo partly drawn) [Example 438, 8-chloro-6-(((S)-(4-fluorophenyl)(1H-1,2,3-triazol-4-yl)methyl)amino)-4-((3-hydroxycyclohexyl)amino) quinoline-3-carbonitrile] | 135 nM | 5130 nM |  |
| N#Cc1cnc2c(Cl)cc(N[C@@H](c3ccc(F)cc3)c3c[nH]nn3)cc2c1NC1CCCC(O)C1 (stereo partly drawn) [Example 439, 8-chloro-6-(((S)-(4-fluorophenyl)(1H-1,2,3-triazol-4-yl)methyl)amino)-4-((3-hydroxycyclohexyl)amino) quinoline-3-carbonitrile] | 2960 nM |  | > 10000 nM |
| CC(C)(C)N1CCC(n2cc([C@@H](Nc3cc(Cl)c4ncc(C#N)c(NC5CCCC(O)C5)c4c3)c3ccc(F)cc3)nn2)CC1 (stereo partly drawn) [Example 440, 6-(((S)-(1-(1-(tert-butyl)piperidin-4-yl)-1H-1,2,3-triazol-4-yl)(4-fluorophenyl)methyl)amino)-8-chloro-4-((3-hydroxycyclohexyl)amino) quinoline-3-carbonitrile] | 46 nM |  | 371 nM |
| CC(C)(C)N1CCC(n2cc([C@@H](Nc3cc(Cl)c4ncc(C#N)c(NC5CCCC(O)C5)c4c3)c3ccc(F)cc3)nn2)CC1 (stereo partly drawn) [Example 441, 6-(((S)-(1-(1-(tert-butyl)piperidin-4-yl)-1H-1,2,3-triazol-4-yl)(4-fluorophenyl)methyl)amino)-8-chloro-4-((3-hydroxycyclohexyl)amino) quinoline-3-carbonitrile] | 804 nM |  | 5820 nM |
| COc1ccccc1CNc1c(C#N)cnc2c(Cl)cc(N[C@@H](c3ccc(F)cc3)c3cn(C4CCN(C(C)(C)C)CC4)nn3)cc12 [Example 442, (S)-6-(((1-(1-(tert-butyl)piperidin-4-yl)-1H-1,2,3-triazol-4-yl)(4-fluorophenyl)methyl)amino)-8-chloro-4-((2-methoxybenzyl)amino) quinoline-3-carbonitrile] | 193 nM | 4900 nM |  |
| N#Cc1cnc2c(Cl)cc(N[C@@H](c3ccc(F)cc3)c3c[nH]nn3)cc2c1NCC(F)(F)F [Example 443, (S)-8-chloro-6-(((4-fluorophenyl)(1H-1,2,3-triazol-4-yl)methyl)amino)-4-((2,2,2-trifluoroethyl)amino) quinoline-3-carbonitrile] | 2700 nM | > 10000 nM |  |
| CC[C@@H](Nc1c(C#N)cnc2c(Cl)cc(N[C@H](c3c[nH]nn3)c3ccccc3F)cc12)c1ccccc1 [Example 444, 8-chloro-6-(((S)-(2-fluorophenyl)(1H-1,2,3-triazol-4-yl)methyl)amino)-4-(((R)-1 phenylpropyl)amino) quinoline-3-carbonitrile] | 28 nM | 855 nM |  |
| CC[C@@H](Nc1c(C#N)cnc2c(Cl)cc(N[C@H](c3c[nH]nn3)c3cccc(F)c3F)cc12)c1ccccc1 [Example 445, 8-chloro-6-(((S)-(2,3-difluorophenyl)(1H-1,2,3-triazol-4-yl)methyl)amino)-4-(((R)-1-phenylpropyl)amino) quinoline-3-carbonitrile] | 46 nM | 1270 nM |  |
| CC[C@@H](Nc1c(C#N)cnc2c(Cl)cc(N[C@H](c3cn(CCF)nn3)c3ccccc3F)cc12)c1ccccc1 [Example 446, 8-chloro-6-(((S)-(1-(2-fluoroethyl)-1H-1,2,3-triazol-4-yl)(2-fluorophenyl)methyl)amino)-4-(((R)-1-phenylpropyl)amino) quinoline-3-carbonitrile] | 11 nM | 338 nM |  |
| N#Cc1cnc2c(Cl)cc(N[C@H](c3c[nH]nn3)c3ccccc3F)cc2c1Nc1cnc(F)c(F)c1 [Example 447, (S)-8-chloro-4-((5,6-difluoropyridin-3-yl)amino)-6-(((2-fluorophenyl) (1H-1,2,3-triazol-4-yl)methyl)amino)quinoline-3-carbonitrile] | 23 nM | 1930 nM |  |
